Each compound was assayed on Melanoderm tissue equivalent model MEL-300 containing melanocytes obtained from dark skin individuals (assay: Melanoderm tissue equivalent model MEL-300, total melanin content (inhibition of melanogenesis)). Conditions: Melanocyte, 336 h; 10 μM in maintenance medium, 14 days, total melanin content vs DMSO vehicle control; read-out: Melanoderm (% Reduction at 10 μM).
Type: cell-based
Protocol: Melanoderm tissue equivalent model MEL-300 (MatTek: Ashland, Mass.) containing melanocytes obtained from dark skin individuals were cultured as per supplier instructions. Components were added to the maintenance medium phase (no topical treatments) at a final concentration of 10 μM for 14 days at which time the experiment was terminated and the tissues assessed for melanin content. Medium and treatments were changed three times per week. DMSO was utilized as the vehicle control and all treatments were performed at least in duplicate.
For quantification of total melanin, each Melanoderm was placed into an individual Eppendorf tube (2 mL) into which 250 μL of Solvable™ tissue solubilizer (Packard Bioscience Co., Cat #6NE9100) was added. Each tube was vortexed and incubated at 60° C. for 18 hours. Each sample was then centrifuged (5-minutes at 13,000 RPMs) to remove any particulates. 100 or 200 μL of supernatant were transferred to a 96 well microtiter plate and the absorbance read at 490 nm. Total melanin content was calculated from a standard curve using synthetic melanin (Sigma Cat #M8631). Data was analyzed for significance using the t-test in Microsoft Excel to generate p-values (p-values less than 0.01 represent 99% confidence, p values of 0.05 represent 95% confidence both of which are statistically significant).

Question: For `COc1ccc(CNCCc2ccccc2)cc1OC` [Compound 3a, N-(3,4-dimethoxybenzyl)-2-phenylethanamine], which inhibition at 10 µM is on record?
Answer: 40.3%

Question: Which inhibition at 10 µM does the source give for `COc1ccc(CNCCc2ccccc2)cc1` [Compound 3b, N-(4-methoxybenzyl)-2-phenylethanamine] here?
Answer: 54.4%

Question: How did the inhibition at 10 µM turn out when `c1ccc(CCNCc2cccc(Oc3ccccc3)c2)cc1` [Compound 3c, N-(3-phenoxybenzyl)-2-phenylethanamine] was run?
Answer: 68.9%

Question: For `COc1ccc(OC)c(CNCCc2ccccc2)c1` [Compound 3d, N-(2,5-dimethoxybenzyl)-2-phenylethanamine], which inhibition at 10 µM is on record?
Answer: 60.3%

Question: `Cc1ccc(CNCCc2ccccc2)cc1C` [Compound 3e, N-(3,4-dimethylbenzyl)-2-phenylethanamine] was tested. Which inhibition at 10 µM did it give?
Answer: 64.5%

Question: How did the inhibition at 10 µM turn out when `c1ccc(CCNCC2CCCCC2)cc1` [Compound 3f, N-(cyclohexylmethyl)-2-phenylethanamine] was run?
Answer: 69.5%

Question: For `COc1cc(CNCCc2ccccc2)cc(OC)c1` [Compound 3g, N-(3,5-dimethoxybenzyl)-2-phenylethanamine], which inhibition at 10 µM is on record?
Answer: 51.6%

Question: Which inhibition at 10 µM does the source give for `COc1ccc(CCNCCc2ccccc2)cc1OC` [Compound 3h, 2-(3,4-dimethoxyphenyl)-N-phenethylethanamine] here?
Answer: 53.1%

Question: `COc1ccc(CN(C)CCc2ccccc2)cc1OC` [Compound 7, N-(3,4-dimethoxybenzyl)-N-methyl-2-phenylethanamine] was tested. Which inhibition at 10 µM did it give?
Answer: 44.4%

Question: With `COc1ccc(CNCCC(C)C)cc1OC` [Compound 9, N-(3,4-dimethoxybenzyl)-3-methylbutan-1-amine] as the compound, how does the inhibition at 10 µM read?
Answer: 1.9%

From patent publication US8293218B2, “Skin care compositions comprising substituted monoamines” (Conopco, Inc., priority 2010, dated 2012)
